Experimental data from ChEMBL document CHEMBL4619709, “Synthesis and in-vitro anti-cancer evaluations of multi-methoxylated asymmetrical diarylpentanoids as intrinsic apoptosis inducer against colorectal cancer” (Bioorg Med Chem Lett, 2020).
Active and inactive are the calls of the source. The rule behind the calls is not given here.

Columns and labels:
HT-29 [1] = test: Antiproliferative activity against human HT-29 cells assessed as reduction in cell viability after 72 hrs by MTT assay; type: functional, cell-based; conditions: HT-29, 72 h
RKO [2] = test: Antiproliferative activity against human RKO cells at 10 uM after 72 hrs by MTT assay; type: functional, cell-based
[3] = Therapeutic index, ratio of IC50 for human NHDF cells to IC50 for human HT-29 cells after 72 hrs; type: toxicity; conditions: NHDF cells versus HT-29 cells, read-out: Ratio IC50
[4] = Therapeutic index, ratio of IC50 for human NHDF cells to IC50 for human LoVo cells after 72 hrs; type: toxicity; conditions: NHDF cells versus LoVo cells, read-out: Ratio IC50
HT-29 [5] = test: Antiproliferative activity against human HT-29 cells at 10 uM after 72 hrs by MTT assay; type: functional, cell-based
NCI-H508 [6] = test: Antiproliferative activity against human NCI-H508 cells assessed as reduction in cell viability after 72 hrs by MTT assay; type: functional, cell-based; conditions: NCI-H508, 72 h
[7] = Therapeutic index, ratio of IC50 for human NHDF cells to IC50 for human NCI-H508 cells after 72 hrs; type: toxicity; conditions: NHDF cells versus NCI-H508 cells, read-out: Ratio IC50
RKO [8] = test: Antiproliferative activity against human RKO cells assessed as reduction in cell viability after 72 hrs by MTT assay; type: functional, cell-based
NCI-H508 [9] = test: Antiproliferative activity against human NCI-H508 cells at 10 uM after 72 hrs by MTT assay; type: functional, cell-based
[10] = Therapeutic index, ratio of IC50 for human NHDF cells to IC50 for human T84 cells after 72 hrs; type: toxicity; conditions: NHDF cells versus T84 cells, read-out: Ratio IC50
[11] = Therapeutic index, ratio of IC50 for human NHDF cells to IC50 for human RKO cells after 72 hrs; type: toxicity; conditions: NHDF cells versus RKO cells, read-out: Ratio IC50
LoVo [12] = test: Antiproliferative activity against human LoVo cells assessed as reduction in cell viability after 72 hrs by MTT assay; type: functional, cell-based
SW-620 [13] = test: Antiproliferative activity against human SW620 cells assessed as reduction in cell viability after 72 hrs by MTT assay; type: functional, cell-based; conditions: SW-620, 72 h
NHDF = test: Cytotoxicity against human NHDF cells assessed as reduction in cell viability; type: cell-based
LoVo [14] = test: Antiproliferative activity against human LoVo cells at 10 uM after 72 hrs by MTT assay; type: functional, cell-based
T84 [15] = test: Antiproliferative activity against human T84 cells at 10 uM after 72 hrs by MTT assay; type: functional, cell-based
SW-620 [16] = test: Antiproliferative activity against human SW620 cells at 10 uM after 72 hrs by MTT assay; type: functional, cell-based
[17] = Therapeutic index, ratio of IC50 for human NHDF cells to IC50 for human SW620 cells after 72 hrs; type: toxicity; conditions: NHDF cells versus SW620 cells, read-out: Ratio IC50
T84 [18] = test: Antiproliferative activity against human T84 cells assessed as reduction in cell viability after 72 hrs by MTT assay; type: functional, cell-based; conditions: T84, 72 h

SMILES	IC50 (HT-29 [1])	Activity (RKO [2])	selectivity ratio at 72 h [3]	selectivity ratio at 72 h [4]	Activity (HT-29 [5])	IC50 (NCI-H508 [6])	selectivity ratio at 72 h [7]	IC50 (RKO [8])	Activity (NCI-H508 [9])	selectivity ratio at 72 h [10]	selectivity ratio at 72 h [11]	IC50 (LoVo [12])	IC50 (SW-620 [13])	IC50 (NHDF)	Activity (LoVo [14])	Activity (T84 [15])	Activity (SW-620 [16])	selectivity ratio at 72 h [17]	IC50 (T84 [18])
COc1cccc(/C=C2\CCC/C(=C\c3cc(OC)c(OC)c(OC)c3)C2=O)c1OC	3.2 µM	Active	3.9 to 7.2	3.9 to 7.2	Active	4.8 µM	3.9 to 7.2	3.6 µM	Active	3.9 to 7.2	3.9 to 7.2	2.6 µM	4.5 µM	18.8 µM	Active	Active	Active	3.9 to 7.2	3.9 µM
COc1cc(/C=C2\CCC/C(=C\c3ccc(F)c(F)c3)C2=O)cc(OC)c1OC	1.7 µM	Active	2.7 to 6.5	2.7 to 6.5	Active	4 µM	2.7 to 6.5	2.2 µM	Active	2.7 to 6.5	2.7 to 6.5	2.3 µM	4.1 µM	11.1 µM	Active	Active	Active	2.7 to 6.5	3.5 µM
O=c1[nH]cc(F)c(=O)[nH]1 [FLUOROURACIL]	> 10 µM	–	–	–	–	8.8 µM	–	2.9 µM	–	–	–	2.7 µM	> 10 µM	> 50 µM	–	–	–	–	> 10 µM
COc1cc(/C=C2\CCC/C(=C\c3ccccc3F)C2=O)cc(OC)c1OC	1.6 µM	Active	1.8 to 2.7	1.8 to 2.7	Active	2 µM	1.8 to 2.7	1.5 µM	Active	1.8 to 2.7	1.8 to 2.7	1.9 µM	2.1 µM	4 µM	Active	Active	Active	1.8 to 2.7	2.2 µM
COc1cc(/C=C2\CCC/C(=C\c3ccc(O)c(O)c3)C2=O)cc(OC)c1OC	8.5 µM	Active	1.1 to 3.3	1.1 to 3.3	Active	7 µM	1.1 to 3.3	3.1 µM	Active	1.1 to 3.3	1.1 to 3.3	2.7 µM	3.2 µM	9 µM	Active	Active	Active	1.1 to 3.3	3.6 µM
COc1cc(/C=C2\CCC/C(=C\c3cccc(O)c3)C2=O)cc(OC)c1OC	7.6 µM	Active	3.3 to 5.3	3.3 to 5.3	Active	5.6 µM	3.3 to 5.3	6.5 µM	Active	3.3 to 5.3	3.3 to 5.3	4.8 µM	> 10 µM	25.3 µM	Active	Active	Active	3.3 to 5.3	6.5 µM
COc1cc(/C=C2\CCC/C(=C\c3ccccc3Br)C2=O)cc(OC)c1OC	2.8 µM	Active	3 to 5	3 to 5	Active	2.7 µM	3 to 5	2.5 µM	Active	3 to 5	3 to 5	2.8 µM	3.3 µM	12.4 µM	Active	Active	Active	3 to 5	4.2 µM
COc1ccccc1/C=C1\CCC/C(=C\c2cc(OC)c(OC)c(OC)c2)C1=O	1.2 µM	Active	3.6 to 7.2	3.6 to 7.2	Active	2.2 µM	3.6 to 7.2	1.2 µM	Active	3.6 to 7.2	3.6 to 7.2	1.1 µM	2 µM	7.9 µM	Active	Active	Active	3.6 to 7.2	2.1 µM
COc1ccc(/C=C2\CCC/C(=C\c3cc(OC)c(OC)c(OC)c3)C2=O)cc1OC	1.5 µM	Active	3.1 to 4.5	3.1 to 4.5	Active	1.7 µM	3.1 to 4.5	1.3 µM	Active	3.1 to 4.5	3.1 to 4.5	1.7 µM	1.6 µM	–	Active	Active	Active	3.1 to 4.5	1.9 µM
